Measurements taken from patent publication US7563766B2, “Methods and compositions for the promotion of a hair growth utilizing actin binding peptides” (The United States of America as represented by the …, priority 2002, dated 2009).
“Also recorded” adds a separate entry of the source. Ends that are not written are not given here.

How the values were obtained:
[1] = system: male and female androgenetic patients; details: human, in vivo; cited from earlier work
[2] = system: chick aortic arches; test: Chick aortic arch vessel sprouting assay; format: cell-based; parameters: key to Sprouting: − = no activity; +/− = low activity; + = active; ++ = high activity; details: for effect of actin on thymosin β4-mediated sprouting: 5-50 nM
Procedure: Chick aortic arch assay—The aortic arch of 13-day-old chick embryos was removed and placed in RPMI 1640. After removal of surrounding connective tissue, transverse sections of the arch were made (1 mm). The resulting aortic rings were carefully attached to the bottom of a 48-well plate, one ring per well, with 20-30 μl of Matrigel (Collaborative Biomedical Products). The rings were placed so that the lumen of each ring could be seen. More Matrigel was added onto the top of the rings to seal them in place. A 100 μl volume of human endothelial—SFM basal growth medium (Invitrogen) containing 1% penicillin streptomycin was added to each well. Thymosin β4, peptide fragments, and exogenous actin (Sigma Chemical Co.) were added to wells in serum-free medium, bringing the final volume of each well to 400 μl. ECGS (200 μg/ml) was used as a positive control. The plates were incubated for 24 hr at 37° C. Rings were fixed and stained with Diff-Quik solution II. Sprouting was scored in a blind assessment by an observer using 10× magnification on an Olympus microscope. Six wells were used for each condition tested, and each assay was done three times.

[3] = system: human umbilical vein endothelial cells; test: HUVEC migration, Boyden chamber assay; format: cell-based
Procedure: (§1) Cells—HUVECs were isolated and used at passages 2-5. Grant et al., J. Cell Sci. 108:3685-3694 (1995). The cells were cultured in RPMI 1640 (Invitrogen, Carlsbad, Calif.) supplemented with 20% bovine calf serum (Hyclone Laboratories, Logan, Utah), 200 μg/ml of endothelial cell growth supplement (ECGS) (Collaborative Biomedical Products, Bedford, Mass.), 0.8 U/ml heparin sodium (Fisher Scientific, Pittsburgh, Pa.), penicillin/streptomycin (Invitrogen, Carlsbad, Calif.), 10 μg/ml gentamycin (Invitrogen, Carlsbad, Calif.), and 1% fungizone (Invitrogen, Carlsbad, Calif.).
Boyden chamber assay—HUVEC migration assays were conducted in a 48-well micro-chemotaxis chamber (Neuro Probe Inc., Cabin John, Md.) as previously described in Salcedo et al., J. Immunol. 166:7571-7578 (2001). Briefly, PVP-free polycarbonate membranes with 8 μm pores were coated with 50 μg/ml of rat tail collagen (BD Biosciences, Bedford, Mass.) in RPMI 1640 that contained 25 mM HEPES (Invitrogen, Carlsbad, Calif.) at 4° C. overnight. The membranes were dried at least 1 hr prior to use. HUVECs were serum-starved for 2 hr, harvested using Versene (Invitrogen, Carlsbad, Calif.), and resuspended in binding medium that contained RPMI 1640 with 1% BSA and 25 mM HEPES. The lower wells of the chamber were loaded with 1, 10, 100, and 1000 ng/ml of thymosin β4 or peptide fragments that were diluted in binding medium. Basic fibroblast growth factor (bFGF) (200 ng/ml) was used as a positive control. Cells were added to the upper portion of the chamber at a concentration of 50,000 cells per well. The chambers were incubated at 37° C. for 4 hr. The filters were fixed and stained using Diff-Quik (VWR, Bridgeport, N.J.). The cells that successfully migrated through the pores of the membrane were manually quantitated using a CK-2 Olympus microscope at 10× magnification. Each condition was assayed in triplicate, and the assay was repeated twice.

[4] = system: hair follicles; test: Topical thymosin β4 or T-3 on shaved aged BALB/c mice; format: in vivo, mouse; details: 5 μg/50 μl in water
Procedure: These mice are considered highly aged as they are alive beyond the normal mouse life expectancy. […] The mice were shaved and treated as described above with thymosin β4 at the time of shaving and 48 hours later. At day 7, the skin was harvested and examined histologically, as described above in Example 1.
The T-3 fragment was produced using an automated peptide synthesizer, as is well known in the art.
The synthetic T-3 peptide was applied in a water solution/mixture at a concentration/dose of 5 μg/50 μl. […] Thus, a fragment of thymosin β4 comprising these amino acids is useful in hair regeneration compositions.

[5] = system: HUVEC; test: HUVEC cell adhesion assay; format: cell-based, human
Procedure: as §1
Cell adhesion—In order to determine which ions are needed for HUVEC adhesion, Laminin-1 peptide (25 ng in 50 μl) and two test concentrations of Tβ4 (100 ng and 500 ng in 50 μl) in 0.1 M carbonate buffer, pH 9.4, were bound to the bottom of U-bottom 96-well plates overnight at 4° C. Wells were then washed twice with PBS and blocked with 150 μl of 3% BSA in PBS (Sigma Chemical Co., St. Louis, Mo.) at room temperature for 30 min. […] The remaining cells were stained with 0.2% crystal violet in 20% methanol, washed in water to remove excess stain, dried overnight at 37° C., and lysed with 10% SDS for 10 min, and the plate OD was read at 600 nm. (Molecular Devices precision microplate reader). […]

Compound | side effects [1] | vessel sprouting, in words [2] | Sprouting ([2]; Table 2 score) | activity in the assays (endothelial cell migration and vessel sprouting) ([2]; statement covers both migration and sprouting assays) | endothelial cell migration, in words [3] | hair follicle development vs water alone [4] | effect of actin on ECGS-mediated vessel sprouting ([2]; exogenous actin added) | effect of actin on thymosin β4-mediated sprouting ([2]; exogenous actin added) | effect of actin on thymosin β4-mediated sprouting ([2]; exogenous actin added, listed as soluble actin) | effect of actin on laminin-1-mediated adhesion ([5]; control) | effect of actin on cell adhesion to thymosin β4 ([5]; soluble actin added, 5-50 nM)
Nc1cc(N2CCCCC2)nc(N)[n+]1[O-] [minoxidil] | scalp irritation and increased facial hair |  |  |  |  |  |  |  |  |  | 
LKKTETQ [Peptide T-3] |  | fully active | ++ | generally highly active | fully active | increased hair follicle development |  |  |  |  | 
actin [reference compound] |  | angiogenic activity |  |  |  |  | did not inhibit | significantly inhibited | inhibited | no effect | inhibited; also recorded: blocked adhesion
